In patent publication US8168779B2, “Anhydrous crystalline β-maltose, its preparation and uses” (priority 2006, dated 2012):

How the values were obtained:
Format in all cases: physicochemical
[1] = Specific surface area by nitrogen adsorption isotherms (BET); conditions: BET method, listed as anhydrous crystalline β-maltose converted by the ethanol treatment
Method: About 3 g of the anhydrous crystalline β-maltose, obtained in Example 1, was dried in the apparatus under a reduced pressure at about 40° C. for about 15 hours as a pretreatment, and then used for the measurement of specific surface area by the nitrogen adsorption isotherms. The result was analyzed by conventional BET (Brunnauer, Emmet, and Teller) method.

[2] = Hygroscopicity test (moisture content under controlled relative humidity); conditions: 27° C.
Method: Moisture contents of the samples at respective periods were measured based on the change of weight from the start of the test. The moisture contents of the samples at the start of the test were measured by Karl Fischer's method.

[3] = Powderizing test by admixing deionized water; conditions: 25° C.
Method: (§1) The usefulness of the crystal was judged by the amount of deionized water added to the limit of keeping the powder form. The form of the powder was evaluated by the following four phases: (1) powder; (2) lump (it keeps a powder form while it comprises lumps); (3) cake; and (4) paste. As a control, the anhydrous crystalline α-maltose used in Example 2 was treated by the same procedure. The test was carried out in a room where the temperature was kept at 25° C. The results of the test and the form of each sample after admixing with 1.25 ml of deionized water are shown in Table 7 and FIG. 15, respectively.

[4] = Powderizing test by admixing dehydrated ethanol
Method: as §1, with “respectively. […] The results of the test and the form of each sample after admixing with 6 ml of dehydrated ethanol are shown in Table 8 and FIG. 16, respectively.” for “respectively.”

Q: For `OC[C@H]1O[C@H](O[C@H]2[C@H](O)[C@@H](O)[C@H](O)O[C@@H]2CO)[C@H](O)[C@@H](O)[C@@H]1O` [anhydrous crystalline β-maltose], which Specific surface area [1] is on record?
A: 3.39 m^2/g

Q: What about the “Moisture content of samples” value ([2]; RH 47% (lithium nitrate), 0 hour (start, Karl Fischer), listed as AC* β-Mal (Present invention)) of the same compound?
A: 0.32 %, w/w

Q: And the “Moisture content of samples” value ([2]; RH 47% (lithium nitrate), 2 hours, listed as AC* β-Mal (Present invention))?
A: 0.30 %, w/w

Q: What about the “Moisture content of samples” value ([2]; RH 47% (lithium nitrate), 4 hours, listed as AC* β-Mal (Present invention)) of the same compound?
A: 0.28 %, w/w

Q: And the “Moisture content of samples” value ([2]; RH 47% (lithium nitrate), 24 hours, listed as AC* β-Mal (Present invention))?
A: 0.27 %, w/w

Q: And the “Moisture content of samples” value ([2]; RH 47% (lithium nitrate), 96 hours, listed as AC* β-Mal (Present invention))?
A: 0.34 %, w/w

Q: What about the “Moisture content of samples” value ([2]; RH 47% (lithium nitrate), 192 hours, listed as AC* β-Mal (Present invention)) of the same compound?
A: 0.28 %, w/w

Q: And the “Moisture content of samples” value ([2]; RH 58% (sodium bromide), 0 hour (start, Karl Fischer), listed as AC β-Mal (Present invention))?
A: 0.32 %, w/w

Q: And the “Moisture content of samples” value ([2]; RH 58% (sodium bromide), 2 hours, listed as AC β-Mal (Present invention))?
A: 0.32 %, w/w

Q: What about the “Moisture content of samples” value ([2]; RH 58% (sodium bromide), 4 hours, listed as AC β-Mal (Present invention)) of the same compound?
A: 0.33 %, w/w

Q: What about the “Moisture content of samples” value ([2]; RH 58% (sodium bromide), 6 hours, listed as AC β-Mal (Present invention)) of the same compound?
A: 0.36 %, w/w

Q: And the “Moisture content of samples” value ([2]; RH 58% (sodium bromide), 8 hours, listed as AC β-Mal (Present invention))?
A: 0.35 %, w/w

Q: And the “Moisture content of samples” value ([2]; RH 58% (sodium bromide), 24 hours, listed as AC β-Mal (Present invention))?
A: 0.35 %, w/w

Q: What about the “Moisture content of samples” value ([2]; RH 58% (sodium bromide), 96 hours, listed as AC β-Mal (Present invention)) of the same compound?
A: 1.47 %, w/w

Q: What about the “Moisture content of samples” value ([2]; RH 58% (sodium bromide), 192 hours, listed as AC β-Mal (Present invention)) of the same compound?
A: 4.16 %, w/w

Q: What about the “Moisture content of samples” value ([2]; RH 75% (sodium chloride), 0 hour (start, Karl Fischer), listed as AC β-Mal (Present invention)) of the same compound?
A: 0.32 %, w/w

Q: And the “Moisture content of samples” value ([2]; RH 75% (sodium chloride), 2 hours, listed as AC β-Mal (Present invention))?
A: 0.66 %, w/w

Q: What about the “Moisture content of samples” value ([2]; RH 75% (sodium chloride), 4 hours, listed as AC β-Mal (Present invention)) of the same compound?
A: 2.37 %, w/w

Q: And the “Moisture content of samples” value ([2]; RH 75% (sodium chloride), 6 hours, listed as AC β-Mal (Present invention))?
A: 3.93 %, w/w

Q: What about the “Moisture content of samples” value ([2]; RH 75% (sodium chloride), 8 hours, listed as AC β-Mal (Present invention)) of the same compound?
A: 4.51 %, w/w

Q: And the “Moisture content of samples” value ([2]; RH 75% (sodium chloride), 24 hours, listed as AC β-Mal (Present invention))?
A: 4.54 %, w/w

Q: And the “Moisture content of samples” value ([2]; RH 75% (sodium chloride), 96 hours, listed as AC β-Mal (Present invention))?
A: 4.57 %, w/w

Q: And the “Moisture content of samples” value ([2]; RH 75% (sodium chloride), 192 hours, listed as AC β-Mal (Present invention))?
A: 5.19 %, w/w

Q: And the “Moisture content of samples” value ([2]; RH 90% (barium chloride), 0 hour (start, Karl Fischer), listed as AC β-Mal (Present invention))?
A: 0.32 %, w/w

Q: What about the “Moisture content of samples” value ([2]; RH 90% (barium chloride), 2 hours, listed as AC β-Mal (Present invention)) of the same compound?
A: 1.72 %, w/w

Q: What about the “Moisture content of samples” value ([2]; RH 90% (barium chloride), 4 hours, listed as AC β-Mal (Present invention)) of the same compound?
A: 4.53 %, w/w

Q: What about the “Moisture content of samples” value ([2]; RH 90% (barium chloride), 6 hours, listed as AC β-Mal (Present invention)) of the same compound?
A: 4.79 %, w/w

Q: What about the “Moisture content of samples” value ([2]; RH 90% (barium chloride), 8 hours, listed as AC β-Mal (Present invention)) of the same compound?
A: 4.58 %, w/w

Q: What about the “Moisture content of samples” value ([2]; RH 90% (barium chloride), 24 hours, listed as AC β-Mal (Present invention)) of the same compound?
A: 4.66 %, w/w

Q: And the “Moisture content of samples” value ([2]; RH 90% (barium chloride), 96 hours, listed as AC β-Mal (Present invention))?
A: 4.82 %, w/w

Q: And the “Moisture content of samples” value ([2]; RH 90% (barium chloride), 192 hours, listed as AC β-Mal (Present invention))?
A: 5.38 %, w/w

Q: And the “Form of the powder after admixing deionized water” value ([3]; 10 g crystal + 0.25 ml water (moisture content 2.4%, w/w))?
A: Powder form

Q: And the “Form of the powder after admixing deionized water” value ([3]; 10 g crystal + 0.50 ml water (moisture content 4.8%, w/w))?
A: Powder form

Q: What about the “Form of the powder after admixing deionized water” value ([3]; 10 g crystal + 0.75 ml water (moisture content 7.0%, w/w)) of the same compound?
A: Powder form

Q: And the “Form of the powder after admixing deionized water” value ([3]; 10 g crystal + 1.00 ml water (moisture content 9.1%, w/w))?
A: Powder form

Q: And the “Form of the powder after admixing deionized water” value ([3]; 10 g crystal + 1.25 ml water (moisture content 11.1%, w/w))?
A: Powder form

Q: And the “Form of the powder after admixing deionized water” value ([3]; 10 g crystal + 1.50 ml water (moisture content 13.0%, w/w))?
A: Lump form

Q: And the “Form of the powder after admixing deionized water” value ([3]; 10 g crystal + 1.75 ml water (moisture content 14.9%, w/w))?
A: Lump form

Q: And the “Form of the powder after admixing deionized water” value ([3]; 10 g crystal + 2.00 ml water (moisture content 16.7%, w/w))?
A: Lump form

Q: What about the “Form of the powder after admixing dehydrated ethanol” value ([4]; 10 g crystal + 3.0 ml ethanol (24.3 v/w %)) of the same compound?
A: Powder form

Q: And the “Form of the powder after admixing dehydrated ethanol” value ([4]; 10 g crystal + 3.5 ml ethanol (27.5 v/w %))?
A: Powder form

Q: And the “Form of the powder after admixing dehydrated ethanol” value ([4]; 10 g crystal + 4.0 ml ethanol (30.5 v/w %))?
A: Powder form

Q: What about the “Form of the powder after admixing dehydrated ethanol” value ([4]; 10 g crystal + 4.5 ml ethanol (33.3 v/w %)) of the same compound?
A: Powder form

Q: What about the “Form of the powder after admixing dehydrated ethanol” value ([4]; 10 g crystal + 5.0 ml ethanol (36.0 v/w %)) of the same compound?
A: Powder form

Q: And the “Form of the powder after admixing dehydrated ethanol” value ([4]; 10 g crystal + 5.5 ml ethanol (38.5 v/w %))?
A: Powder form

Q: And the “Form of the powder after admixing dehydrated ethanol” value ([4]; 10 g crystal + 6.0 ml ethanol (40.9 v/w %))?
A: Powder form

Q: And the “Form of the powder after admixing dehydrated ethanol” value ([4]; 10 g crystal + 7.0 ml ethanol (45.3 v/w %))?
A: Powder form

Q: And the “Form of the powder after admixing dehydrated ethanol” value ([4]; 10 g crystal + 8.0 ml ethanol (49.3 v/w %))?
A: Powder form

Q: What about the “Form of the powder after admixing dehydrated ethanol” value ([4]; 10 g crystal + 9.0 ml ethanol (52.9 v/w %)) of the same compound?
A: Lump form

Q: And the “Form of the powder after admixing dehydrated ethanol” value ([4]; 10 g crystal + 10.0 ml ethanol (56.2 v/w %))?
A: Lump form

Q: What about the “Form of the powder after admixing dehydrated ethanol” value ([4]; 10 g crystal + 11.0 ml ethanol (59.2 v/w %)) of the same compound?
A: Cake form
